# Experimental data from patent publication US11555042B2, “Macrocyclic compounds as TRK kinases inhibitors” (FOCHON BIOSCIENCES, LTD., priority 2018, dated 2023).
# Test system: KM12 cells
# Experiment: KM12 cells proliferation inhibition (MTS), mechanism-based assay for TRK
# Type: cell-based
# Settings: 72 h
# Text: MTS testing kit was purchased from Promega (Madison, Wis., USA). The RPMI-1640, Fetal bovine serum and Penicillin-Streptomycin were purchased from Gibco (San Francisco, Calif., USA). Dimethyl sulfoxide (DMSO) and Puromycin were purchased from Sigma (St. Louis., Mo., USA). Mouse interleukin-3 (IL-3) was purchased from Cell signaling Technology (Boston, Mass., USA).
# To investigate whether a compound is able to inhibit the activity of TRK in cells, a mechanism-based assay using KM12 cells was developed. In this assay, inhibition of TRK was detected by the inhibition of KM12 cells proliferation. KM12 cells were cultured in culture flasks to 40-80% confluence in RPMI-1640 plus 10% fetal bovine serum. Cells were collected and plated onto 96-well plates at 1000 cells/well. Plates were incubated at 37° C., with 5% CO2 for 4 h. Compounds were added to the plates, the final compound concentrations were […], 123.5, 41.2, 13.7, 4.6 and 1.5 nM. Place plates at 37° C., with 5% CO2 for KM12 cells 72 h. 20 μl MTS/100 μl medium mixture solution were added to each well and incubate the plates for exactly 2 h. Stop the reaction by adding 25 μl 10% SDS per well. Measure absorbance at 490 nm and 650 nm (reference wavelength). IC50 was calculated using GraphPad Prism 5.0.
row,Compound,IC50 [nM]
1,"C[C@@H]1CCc2ccc(F)cc2C23CC2CCN3c2ccc3ncc(n3n2)C(=O)N1 (single isomer, unassigned) [Example 33B]",1
2,"C[C@@H]1CCc2ccc(F)cc2C23CC2CCN3c2ccn3ncc(c3n2)C(=O)N1 (stereo partly drawn) [Example 12B, (1^3E,1^4E,6R)-3^5-fluoro-6-methyl-2^2,7-diaza-1(5,3)-pyrazolo[1,5-a]pyrimidina-2(2,1)-bicyclo[3.1.0]hexana-3(1,2)-benzenacyclooctaphan-8-one]",2

# Same assay, conditions: Homo sapiens, KM12, 72 h
row,Compound,IC50 [nM]
1,"C[C@@H]1CCc2ccc(F)cc2C23CC2CCN3c2ccc3ncc(n3n2)C(=O)N1 (single isomer, unassigned) [Example 33A]",1
2,"C[C@@H]1COc2ccc(F)cc2C23CC2CCN3c2ccn3ncc(c3n2)C(=O)N1 (stereo partly drawn) [Example 1, (1^3E,1^4E,6R)-3^5-fluoro-6-methyl-4-oxa-2^2,7-diaza-1(5,3)-pyrazolo[1,5-a]pyrimidina-2(2,1)-azabicyclo[3.1.0]hexana-3(1,2)-benzenacyclooctaphan-8-one]",1
3,"C[C@@H]1COc2ccc(F)cc2C2(CC2)Nc2ccn3ncc(c3n2)C(=O)N1 [Example 2, (R,3′E,4′E)-5′-fluoro-7′-methylspiro[cyclopropane-1,3′-5-oxa-2,8-diaza-1(5,3)-pyrazolo[1,5-a]pyrimidina-4(1,2)-benzenacyclononaphan]-9′-one]",1
4,"C[C@H]1CNC(=O)c2cnn3ccc(nc23)NC2(CC2)c2cc(F)ccc2O1 [Example 4, (S,3′E,4′E)-5′-fluoro-6′-methylspiro[cyclopropane-1,3′-5-oxa-2,8-diaza-1(5,3)-pyrazolo[1,5-a]pyrimidina-4(1,2)-benzenacyclononaphan]-9′-one]",1
5,"C[C@@H]1CCc2ncc(F)cc2C23CC2CCN3c2ccn3ncc(c3n2)C(=O)N1 (stereo partly drawn) [Example 5, (1^3E,1^4E,6R)-3^5-fluoro-6-methyl-2^2,7-diaza-1(5,3)-pyrazolo[1,5-a]pyrimidina-3(3,2)-pyridina-2(2,1)-bicyclo[3.1.0]hexanacyclooctaphan-8-one]",1
6,"C[C@@H]1COc2ncc(F)cc2C23CC2CCN3c2ccn3ncc(c3n2)C(=O)N1 (stereo partly drawn) [Example 6, (1^3E,1^4E,6R)-3^5-fluoro-6-methyl-4-oxa-2^2,7-diaza-1(5,3)-pyrazolo[1,5-a]-pyrimidina-3(3,2)-pyridina-2(2,1)-bicyclo[3.1.0]hexanacyclooctaphan-8-one]",1
7,"C[C@H]1CNC(=O)c2cnn3ccc(nc23)N2CCC3CC32c2cc(F)cnc2O1 (stereo partly drawn) [Example 7, (1^3E,1^4E,5S)-3^5-fluoro-5-methyl-4-oxa-2^2,7-diaza-1(5,3)-pyrazolo[1,5-a]pyrimidina-3(3,2)-pyridina-2(2,1)-bicyclo[3.1.0]hexanacyclooctaphan-8-one]",1
8,"C[C@H]1CNC(=O)c2cnn3ccc(nc23)NC2(CC2)c2cc(F)cnc2O1 [Example 9, (S,3′E,4′E)-5′-fluoro-6′-methylspiro[cyclopropane-1,3′-5-oxa-2,8-diaza-1(5,3)-pyrazolo[1,5-a]pyrimidina-4(3,2)-pyridinacyclononaphan]-9′-one]",7
9,"C[C@@H]1CCc2ncc(F)cc2C2(CC2)Nc2ccn3ncc(c3n2)C(=O)N1 [Example 10, (R,3′E,4′E)-5′-fluoro-7′-methylspiro[cyclopropane-1,3′-2,8-diaza-1(5,3)-pyrazolo[1,5-a]pyrimidina-4(3,2)-pyridinacyclononaphan]-9′-one]",1
10,"C[C@@H]1CCc2ccc(F)cc2C23CC2CCN3c2ccn3ncc(c3n2)C(=O)N1 (stereo partly drawn) [Example 12A, (1^3E,1^4E,6R)-3^5-fluoro-6-methyl-2^2,7-diaza-1(5,3)-pyrazolo[1,5-a]pyrimidina-2(2,1)-bicyclo[3.1.0]hexana-3(1,2)-benzenacyclooctaphan-8-one]",1
11,"C[C@@H]1COc2ccc(F)cc2C23CC2CCN3c2ccc3ncc(n3n2)C(=O)N1 (stereo partly drawn) [Example 13, (6R,E)-3^5-fluoro-6-methyl-4-oxa-2^2,7-diaza-1(6,3)-imidazo[1,2-b]pyridazina-2(2,1)-bicyclo[3.1.0]hexana-3(1,2)-benzenacyclooctaphan-8-one]",1
12,"C[C@@H]1COc2ncc(F)cc2C23CC2CCN3c2ccc3ncc(n3n2)C(=O)N1 (stereo partly drawn) [Example 14, (6R,E)-3^5-fluoro-6-methyl-4-oxa-2^2,7-diaza-1(6,3)-imidazo[1,2-b]pyridazina-3(3,2)-pyridina-2(2,1)-bicyclo[3.1.0]hexanacyclooctaphan-8-one]",1
13,"C[C@H]1CNC(=O)c2cnc3ccc(nn23)N2CCC3CC32c2cc(F)ccc2O1 (stereo partly drawn) [Example 32, (5S,E)-3^5-fluoro-5-methyl-4-oxa-2^2,7-diaza-1(6,3)-imidazo[1,2-b]pyridazina-2(2,1)-bicyclo[3.1.0]hexana-3(1,2)-benzenacyclo-octaphan-8-one]",1
14,"C[C@H]1CNC(=O)c2cnc3ccc(nn23)N2CCC3CC32c2cc(F)cnc2O1 (stereo partly drawn) [Example 34, (5S,E)-3^5-fluoro-5-methyl-4-oxa-2^2,7-diaza-1(6,3)-imidazo[1,2-b]pyridazina-3(3,2)-pyridina-2(2,1)-bicyclo[3.1.0]-hexanacyclooctaphan-8-one]",1
15,"C[C@@H]1CCc2ncc(F)cc2C23CC2CCN3c2ccc3ncc(n3n2)C(=O)N1 (stereo partly drawn) [Example 35, (6R,E)-3^5-fluoro-6-methyl-2^2,7-diaza-1(6,3)-imidazo[1,2-b]pyridazina-3(3,2)-pyridina-2(2,1)-bicyclo[3.1.0]hexanacyclo-octaphan-8-one]",1
16,"C[C@@H]1CNC(=O)c2cnn3ccc(nc23)NC2(CC2)c2cc(F)cnc2O1 [Example 42, (R,3′E,4′E)-5′-fluoro-6′-methylspiro-[cyclopropane-1,3′-5-oxa-2,8-diaza-1(5,3)-pyrazolo[1,5-a]pyrimidina-4(3,2)-pyridina-cyclononaphan]-9′-one]",3
17,"C[C@@H]1COc2ccc(F)cc2C2(CC2)N(C)c2ccc3ncc(n3n2)C(=O)N1 [Example 53, (7′R,E)-5′-fluoro-2′,7′-dimethylspiro-[cyclopropane-1,3′-5-oxa-2,8-diaza-1(6,3)-imidazo[1,2-b]pyridazina-4(1,2)-benzenacyclononaphan]-9′-one]",30
18,"C[C@@H]1CCc2ccc(F)cc2C2(CC2)N(C)c2ccc3ncc(n3n2)C(=O)N1 [Example 56, (7′R,E)-5′-fluoro-2′,7′-dimethylspiro-[cyclopropane-1,3′-2,8-diaza-1(6,3)-imidazo[1,2-b]pyridazina-4(1,2)-benzenacyclononaphan]-9′-one]",3
